Results published in patent US9624214B2, “Amino-substituted imidazo[1,2-a]pyridinecarboxamides and their use” (BAYER PHARMA AKTIENGESELLSCHAFT, priority 2012, dated 2017).

What follows are molecules tested against T1, recombinant guanylate cyclase reporter cell line (Rattus norvegicus, UniProt P19686+P20595) (assay: B-2. Action on recombinant guanylate cyclase reporter cell line). Conditions: MEC = minimal effective concentration; in some cases mean values from individual determinations.
T1 construct: expressed in transfected cells
T1 sequence (P20595 1-619): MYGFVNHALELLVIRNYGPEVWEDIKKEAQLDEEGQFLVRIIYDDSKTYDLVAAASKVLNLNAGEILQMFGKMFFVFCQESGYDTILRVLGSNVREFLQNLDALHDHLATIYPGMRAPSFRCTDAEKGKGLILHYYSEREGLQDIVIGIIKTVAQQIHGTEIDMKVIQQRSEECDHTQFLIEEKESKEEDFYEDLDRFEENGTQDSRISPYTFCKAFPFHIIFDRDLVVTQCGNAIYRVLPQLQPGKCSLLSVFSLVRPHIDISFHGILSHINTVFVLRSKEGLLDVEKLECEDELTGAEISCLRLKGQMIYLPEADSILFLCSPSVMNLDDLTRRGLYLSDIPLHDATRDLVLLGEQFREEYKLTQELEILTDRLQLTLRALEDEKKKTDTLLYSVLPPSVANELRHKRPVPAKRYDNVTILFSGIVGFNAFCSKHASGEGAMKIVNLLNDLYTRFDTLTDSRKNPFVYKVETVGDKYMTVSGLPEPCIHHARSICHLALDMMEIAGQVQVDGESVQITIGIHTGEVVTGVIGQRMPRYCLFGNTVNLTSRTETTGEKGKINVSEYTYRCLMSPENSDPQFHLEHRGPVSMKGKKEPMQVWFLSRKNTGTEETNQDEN
T1 sequence (P19686 1-690): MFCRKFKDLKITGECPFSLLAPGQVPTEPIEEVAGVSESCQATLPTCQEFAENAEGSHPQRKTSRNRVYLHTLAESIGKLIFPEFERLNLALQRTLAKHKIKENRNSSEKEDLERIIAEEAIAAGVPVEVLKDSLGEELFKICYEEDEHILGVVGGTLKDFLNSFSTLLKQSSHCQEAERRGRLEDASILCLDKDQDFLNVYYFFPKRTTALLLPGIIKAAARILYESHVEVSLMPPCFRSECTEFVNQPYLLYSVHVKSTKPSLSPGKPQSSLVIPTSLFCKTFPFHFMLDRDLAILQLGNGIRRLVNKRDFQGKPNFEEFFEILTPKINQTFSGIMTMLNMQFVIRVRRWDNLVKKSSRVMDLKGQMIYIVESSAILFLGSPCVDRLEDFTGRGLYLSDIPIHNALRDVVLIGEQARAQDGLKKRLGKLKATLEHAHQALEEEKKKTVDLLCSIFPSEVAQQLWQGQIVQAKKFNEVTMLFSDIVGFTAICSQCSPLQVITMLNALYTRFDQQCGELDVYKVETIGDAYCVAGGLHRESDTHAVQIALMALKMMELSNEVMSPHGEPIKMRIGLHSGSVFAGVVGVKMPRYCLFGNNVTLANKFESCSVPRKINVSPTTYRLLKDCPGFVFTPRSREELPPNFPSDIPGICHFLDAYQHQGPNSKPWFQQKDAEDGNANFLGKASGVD
Type: cell-based
Outline: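 Compounds are tested on whole cells carrying a guanylate cyclase reporter construct. The lowest concentration giving an effect is recorded as the MEC.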
Molecule `COCC(CN)NC(=O)c1c(C)nc2c(OCc3c(F)cccc3F)cccn12` (single isomer, unassigned) [Example 122, ent-N-(1-Amino-3-methoxypropan-2-yl)-8-[(2,6-difluorobenzyl)oxy]-2-methylimidazo[1,2-a]-pyridine-3-carboxamide Ditrifluoroacetate] has an MEC of 1.00 µM.
With `COCC(CN)NC(=O)c1c(C)nc2c(OCc3c(F)cccc3F)cccn12` (single isomer, unassigned) [Example 123, ent-N-(1-Amino-3-methoxypropan-2-yl)-8-[(2,6-difluorobenzyl)oxy]-2-methylimidazo[1,2-a]-pyridine-3-carboxamide Ditrifluoroacetate] the MEC was 3.00 µM.
`Cc1nc2c(OCc3c(F)cccc3F)cccn2c1C(=O)NCC(N)CC(F)(F)F` (single isomer, unassigned) [Example 126, ent-N-(2-Amino-4,4,4-trifluorobutyl)-8-[(2,6-difluorobenzyl)oxy]-2-methylimidazo[1,2-a]pyridine-3-carboxamide] gave an MEC of 0.30 µM.
For `Cc1nc2c(OCc3c(F)cccc3F)cccn2c1C(=O)NCC(N)CC(F)(F)F` (single isomer, unassigned) [Example 127, ent-N-(2-Amino-4,4,4-trifluorobutyl)-8-[(2,6-difluorobenzyl)oxy]-2-methylimidazo[1,2-a]pyridine-3-carboxamide], the MEC was 1.00 µM.
For `Cc1cc(OCc2c(F)cccc2F)c2nc(C)c(C(=O)NCC(N)CC(F)(F)F)n2c1` (single isomer, unassigned) [Example 128, ent-N-(2-Amino-4,4,4-trifluorobutyl)-8-[(2,6-difluorobenzyl)oxy]-2,6-dimethylimidazo[1,2-a]-pyridine-3-carboxamide], the MEC was 0.10 µM.
Work on `Cc1cc(OCc2c(F)cccc2F)c2nc(C)c(C(=O)NCC(N)CC(F)(F)F)n2c1` (single isomer, unassigned) [Example 129, ent-N-(2-Amino-4,4,4-trifluorobutyl)-8-[(2,6-difluorobenzyl)oxy]-2,6-dimethylimidazo[1,2-a]-pyridine-3-carboxamide] yielded an MEC of 0.10 µM.
For `Cc1nc2c(OCc3c(F)cccc3F)cccn2c1C(=O)NC(C)[C@H](C)N` (single isomer, unassigned) [Example 174], the MEC was 0.30 µM.
`Cc1nc2c(OCc3c(F)cccc3F)cccn2c1C(=O)NC(C)[C@H](C)N` (single isomer, unassigned) [Example 175] was tested, and the MEC was 1.00 µM.
Molecule `Cc1nc2c(OCc3c(F)cccc3F)cccn2c1C(=O)NC(C)[C@@H](C)N` (single isomer, unassigned) [Example 176] has an MEC of 1.00 µM.
`Cc1nc2c(OCc3c(F)cccc3F)cccn2c1C(=O)NC(C)[C@@H](C)N` (single isomer, unassigned) [Example 177] showed an MEC of 1.00 µM.
`Cc1nc2c(OCC3CCCCC3)cccn2c1C(=O)NC(CN)c1ccc(F)c(F)c1` (single isomer, unassigned) [Example 178, ent-N-[2-Amino-1-(3,4-difluorophenyl)ethyl]-8-(cyclohexylmethoxy)-2-methylimidazo[1,2-a]-pyridine-3-carboxamide] showed an MEC of 0.30 µM.
In the case of `Cc1nc2c(OCC3CCCCC3)cccn2c1C(=O)NC(CN)c1ccc(F)c(F)c1` (single isomer, unassigned) [Example 179, ent-N-[2-Amino-1-(3,4-difluorophenyl)ethyl]-8-(cyclohexylmethoxy)-2-methylimidazo[1,2-a]-pyridine-3-carboxamide], the MEC is reported as 1.00 µM.
With `Cc1nc2c(OCc3c(F)cccc3F)cccn2c1C(=O)NC12CNCCC1C2` (single isomer, unassigned) [Example 184, ent-N-(3-Azabicyclo[4.1.0]hept-1-yl)-8-[(2,6-difluorobenzyl)oxy]-2-methylimidazo[1,2-a]pyridine-3-carboxamide] the MEC was 1.00 µM.
Work on `Cc1nc2c(OCc3c(F)cccc3F)cccn2c1C(=O)NC12CNCCC1C2` (single isomer, unassigned) [Example 185, ent-N-(3-Azabicyclo[4.1.0]hept-1-yl)-8-[(2,6-difluorobenzyl)oxy]-2-methylimidazo[1,2-a]pyridine-3-carboxamide] yielded an MEC of 1.00 µM.
